Source: EP2292587A1, “PHARMACEUTICAL COMPOSITION FOR INHIBITING THE TRANSCRIPTION FACTOR INDUCIBLE BY HYPOXIA, MODULATORS OF PATHOLOGICAL PROCESSES OF ANGIOGENESIS, ONCOGENESIS, INFLAMMATION, APOPTOSIS, AND CELLULAR THERAPY” (Fundacion De La Comunidad Valenciana Centro De …, priority 2008, dated 2009)
Where two headings read alike, the source gives them in different places.

Experiments:
[1] = tested on: histone deacetylase (HDAC); assay: HDAC Fluorimetric Cellular Activity Assay, HeLa cell extracts; type: cell-based; conditions: different concentrations
Protocol: Since FM19G11 was capable of affecting the degree of acetylation of histone H3 and therefore the conformation of chromatin, it was evaluated if FM19G11 favored the transfer of acetyl groups to histone H3 or, on the contrary, prevented histone H3 from being deacetylated. Both effects would cause an increase of the degree of acetylation of histone H3. Immunoprecipitation assays were performed with an antibody recognizing acetyltransferase p300 and then assays for measuring the acetyltransferase activity by means of using the kit "HAT Colorimetric Assay" (BioVision) were carried out. This method consists of detecting NADH since peptide acetylation causes the release of the free form of Coenzyme A, which serves as an essential coenzyme for producing NADH.
The protein extracts were previously immunoprecipitated with an anti-p300 antibody and the acetyltransferase activity measured by the detection of NADH. The evaluation of the histone deacetylase (HDAC) activity (Figure 34 B) was carried out with protein extracts of HeLa cells treated with different concentrations of FM19G11. As a positive control, a fixed concentration of TSA (1 µM) was included and extracts of untreated cells were used as a control. The experiments were carried out following the instructions of the Biomol kit for detecting histone deacetylase activity (HDAC Fluorimetric Cellular Activity Assay, Biomol, Cat. No. AK-503). […]

HCT116/p53-/- cells = assay: cell cycle distribution by flow cytometry, HCT116/p53-/-; type: cell-based, human; conditions: 0.5, 1, 5, 10 µM, 3 or 6 days
Excerpt: It was investigated if the activation of DDR by FM19G11 caused a delay in the cycle progress through the G1/S phases in HCT116 tumor cells, as has been described for other DNA-damaging agents (.Lim, DS, Kim, ST, Xu, B, Maser, RS, Lin, J, Petrini, JH et al., (2000) ATM phosphorylates p95/nbs1 in an S-phase checkpoint pathway. Nature 404: 613-7.; Jazayeri, A, Falck, J, Lukas, C, Bartek, J, Smith, GC, Lukas, J et al., (2006) ATM- and cell cycle-dependent regulation of ATR in response to DNA double-strand breaks. Nat Cell Biol 8: 37-45; Liu, JS, Kuo, SR, Beerman, TA and Melendy, T, (2003) Induction of DNA damage responses by adozelesin is S phase-specific and dependent on active replication forks. Mol Cancer Ther 2: 41-7; Ranjan, P and Heintz, NH, (2006) S-phase arrest by reactive nitrogen species is bypassed by okadaic acid, an inhibitor of protein phosphatases PP1/PP2A. Free Radic Biol Med 40: 247-59.). The HCT116 p53+/+ and HCT116 p53-/- cells were exposed for 3 or 6 days to the carrier (DMSO) or to FM19G11 (0.5, 1, 5, 10 µM). […] (Figure 24).
A- The HCT116/p53+/+ cells and B-HCT116/p53-/- cells were exposed to different concentrations of FM19G11 (0.5, 1, 5, 10 µM) or carrier for 3 or 6 days to analyze the distribution of cells in the different cell cycle phases by means of flow cytometry. […]

HIF = assay: luciferase cell assay based on the HIF response elements (HRE), HeLa 9XHRE-LUC; design: species or system human; conditions: Homo sapiens, HeLa
Excerpt: In order to identify direct inhibitors of the activity of HIF, a stable recombinant line was first constructed from the cervical tumor line, known in scientific literature as HeLa, which contained the deoxyribonucleic acid (DNA) sequences of the region located between positions -985 and -951 of the human vascular endothelial growth factor (hVEGF), repeated nine times (9X) and fused to the luciferase reporter gene (LUC). This plasmid, provided by Dr. Manuel Ortiz de Landazuri from the Hospital de La Princesa of Madrid, called 9XHRE-LUC, was prepared using a commercial kit (Endofree Maxi-Prep; Qiagen, Inc., Valencia, CA). The transfections were performed with FuGene6 (Roche, cat.1814443) according to the manufacturer's instructions, the µg DNA: µg FuGene ratio was 1:3. The transfected cell lines were generated by cotransfection with the vector pCMV-Hygrom which expressed a hygromycin resistance gene in mammalian cells, allowing the selection of the transfected clones. After 48 hours, the growth medium was substituted with fresh medium containing 100 µg/ml hygromycin (Sigma), the clones resistant to the antibiotic were collected and analyzed by means of RT-PCR to select the clone with the desired construct. Routinely, the HeLa 9XHRE-LUC cell line was maintained in exponential growth by means of performing subcultures in DMEM (Invitrogen-Life Technologies, Inc., Carlsbad, CA), supplemented with 10% inactivated fetal bovine serum (Whittacker Bioproducts), penicillin (50 IU/ml), streptomycin (50 µg/ml) (Invitrogen-Life Technologies, Inc., Carlsbad, CA). The cells were cultured at 37°C with a humidified atmosphere containing 5% CO2 and 300 nM Desferoxamine (DFX; Sigma St. Louis, MO).
The compounds of the Collection of the CIPF, coming from a selection of commercial collections of Sigma-Aldrich, were solubilized in DMSO at a final concentration of 5 mM and preserved at -80°C. The concentration of these compounds in the luciferase assay was 1 mcM finally in the well of the multi-well plate in which the reaction was carried out. The luciferase assays were performed in white 96-well plates (Valtecknova ref. 3917), using the kit Bright-Glo™ Luciferase Assay System (Promega, Inc., Madison, WI) following the instructions supplied by the manufacturer.
According to the methodology of the cell assay based on the HIF response elements (Example 1), the intermediate compounds of the synthesis and several synthesized analogs were tested to obtain the SAR of FM19G11.

HCT116/p53-/- = assay: clonicity assay, HCT116/p53-/-; type: cell-based, human
Protocol: Clonicity assays were conducted to determine the toxicity of FM19G11 in p53-proficient (HT29 and HCT116/p53^+/+) and p53-deficient (HCT116/p53^-/-) tumor cells. Once the HT-29, HCT116/p53^+/+ and HCT116/p53^-/- cells were adhered to the culture plate, they were stimulated with increasing concentrations of FM19G11 (0.5, 1, 5, 10, 20, 50 µM) for 72 hours. After 10 days of stimulation, the number of colonies formed in the plates of treated and untreated cells was determined.
Results of the clonicity assays of HT29 human colon cancer cells, HCT116 cells treated with FM19G11 were monitored up to 10 after the treatment (Figure 28). The IC50 was determined by extrapolating the percentage with the concentration. FM19G11 was used at concentrations: 0.5, 1, 5, 10, 50, 100, 200 µM

Structure (SMILES): Cc1ccc(C(=O)COC(=O)c2cccc(NC(=O)c3ccc([N+](=O)[O-])cc3[N+](=O)[O-])c2)cc1 [FM19G11, 2-oxo-2-(p-tolyl)ethyl 3-((2,4-dinitro)benzamido)benzoate]
- activity as a histone deacetylase inhibitor [1]: did not show activity
- G1/S phase cycle arrest (HCT116/p53-/- cells): did not cause a G1/S phase cycle blocking
- IC50 (HIF): 0.08 µM
- IC50 (HIF; 6 h, read-out: IC50 from dose response curve (Figure 2 B)): 0.08 µM
- IC50 (HIF; read-out: IC50 HRE (µM)): 0.08 µM
- increase of resistance by loss of function of p53 (ratio of IC50 values in HCT116) (HCT116/p53-/-; HCT116/p53-/- versus HCT116/p53+/+): 4.71 times
- IC50 (HCT116/p53-/-; Homo sapiens, HCT-116, stimulated 72 hours, colonies counted after 10 days, read-out: survival IC50): 16500 nM
